In ChEMBL document CHEMBL3885861, “Open TG-GATES”:

Species on record: Rattus norvegicus
Experiment: Open TG-GATES - Regimen: Daily Repeat
Assay type: toxicity, organism-based, Sprague-Dawley
Set-up: regimen Daily Repeat, gender Male, age 6 weeks
Settings: in vivo, po, 2 mg/kg, route gavage, dose level Low; for APTT / Bas / Eos / Fbg / Hb / Ht / Lym / MCH / MCHC / MCV / Mono / Neu / PT / Plat / RBC / Ret / WBC: tissue Blood; for KIDNEY_L / KIDNEY_R / KIDNEY_TOTAL: tissue Kidney; for LIVER: tissue Liver; for ALP / ALT / AST / BUN / CRE / Ca / Cl / DBIL / GLC / IP / K / LDH / Na / PL / RALB / TBIL / TC / TG / TP / gamma-GTP: tissue Plasma

## O=P1(N(CCCl)CCCl)NCCCO1 (stereo not drawn) [CYCLOPHOSPHAMIDE ANHYDROUS]
72 h, time 3 day
  TERMINAL_BW: 217.7 g
  APTT: 20.8 s
  Bas: 0%
  Eos: 1%
  Fbg: 299.8 mg/dL
  Hb: 13.3 g/dL
  Ht: 40.1%
  Lym: 79.8%
  MCH: 21.3 pg
  MCHC: 33.1%
  MCV: 64.3 fL
  Mono: 3%
  Neu: 15%
  PT: 16.5 s
  Plat: 126.5 x10_4/uL
  RBC: 624.6 x10_4/ul
  Ret: 6.5%
  WBC: 74.5 x10_2/uL
  KIDNEY_L: 1 g
  KIDNEY_R: 1 g
  KIDNEY_TOTAL: 1.9 g
  LIVER: 10.2 g
  ALP: 1778.2 IU/L
  ALT: 40.2 IU/L
  AST: 67 IU/L
  BUN: 17.8 mg/dL
  CRE: 0.2 mg/dL
  Ca: 10.8 mg/dL
  Cl: 106 meq/L
  DBIL: 0 mg/dL
  GLC: 187.4 mg/dL
  IP: 7.1 mg/dL
  K: 4.1 meq/L
  LDH: 164.8 IU/L
  Na: 141.8 meq/L
  PL: 160.8 mg/dL
  RALB: 3.1 g/dL
  TBIL: 0.012 mg/dL
  TC: 78.2 mg/dL
  TG: 121.6 mg/dL
  TP: 5.6 g/dL
  gamma-GTP: 1.2 IU/L
[…], time 7 day
  TERMINAL_BW: 254.7 g
  APTT: 22.6 s
  Bas: 0%
  Eos: 0.6%
  Fbg: 282.6 mg/dL
  Hb: 13.3 g/dL
  Ht: 40.1%
  Lym: 80.8%
  MCH: 21.7 pg
  MCHC: 33.2%
  MCV: 65.3 fL
  Mono: 2.4%
  Neu: 15.4%
  PT: 16.8 s
  Plat: 130 x10_4/uL
  RBC: 613.8 x10_4/ul
  Ret: 5.8%
  WBC: 88.7 x10_2/uL
  KIDNEY_L: 1.1 g
  KIDNEY_R: 1.1 g
  KIDNEY_TOTAL: 2.3 g
  LIVER: 12 g
  ALP: 1581 IU/L
  ALT: 41.4 IU/L
  AST: 69.4 IU/L
  BUN: 16.6 mg/dL
  CRE: 0.2 mg/dL
  Ca: 10.9 mg/dL
  Cl: 105 meq/L
  DBIL: 0 mg/dL
  GLC: 184.6 mg/dL
  IP: 7.7 mg/dL
  K: 4.2 meq/L
  LDH: 193.6 IU/L
  Na: 143.2 meq/L
  PL: 158.2 mg/dL
  RALB: 3 g/dL
  TBIL: 0.02 mg/dL
  TC: 76.8 mg/dL
  TG: 137.2 mg/dL
  TP: 5.5 g/dL
  gamma-GTP: 3.6 IU/L
[…], time 14 day
  TERMINAL_BW: 305.2 g
  APTT: 22.2 s
  Bas: 0%
  Eos: 0.8%
  Fbg: 315 mg/dL
  Hb: 13.9 g/dL
  Ht: 41%
  Lym: 82.6%
  MCH: 20.2 pg
  MCHC: 33.9%
  MCV: 59.7 fL
  Mono: 2.4%
  Neu: 13.2%
  PT: 14.8 s
  Plat: 121.1 x10_4/uL
  RBC: 687.8 x10_4/ul
  Ret: 4.7%
  WBC: 88.9 x10_2/uL
  KIDNEY_L: 1.2 g
  KIDNEY_R: 1.2 g
  KIDNEY_TOTAL: 2.5 g
  LIVER: 13.3 g
  ALP: 1389 IU/L
  ALT: 34.4 IU/L
  AST: 60.6 IU/L
  BUN: 18.2 mg/dL
  CRE: 0.2 mg/dL
  Ca: 10.7 mg/dL
  Cl: 107.2 meq/L
  DBIL: 0.002 mg/dL
  GLC: 174.4 mg/dL
  IP: 6.5 mg/dL
  K: 4.2 meq/L
  LDH: 141.4 IU/L
  Na: 142.8 meq/L
  PL: 150.4 mg/dL
  RALB: 3.1 g/dL
  TBIL: 0.022 mg/dL
  TC: 71.4 mg/dL
  TG: 145.6 mg/dL
  TP: 5.7 g/dL
  gamma-GTP: 2 IU/L
[…], time 28 day
  TERMINAL_BW: 367.9 g
  APTT: 23.3 s
  Bas: 0%
  Eos: 1%
  Fbg: 302.6 mg/dL
  Hb: 14.7 g/dL
  Ht: 42.7%
  Lym: 78.4%
  MCH: 19.4 pg
  MCHC: 34.5%
  MCV: 56.1 fL
  Mono: 2.2%
  Neu: 17.2%
  PT: 16.4 s
  Plat: 98.2 x10_4/uL
  RBC: 761.2 x10_4/ul
  Ret: 2.6%
  WBC: 84.8 x10_2/uL
  KIDNEY_L: 1.3 g
  KIDNEY_R: 1.3 g
  KIDNEY_TOTAL: 2.6 g
  LIVER: 14.1 g
  ALP: 1055.8 IU/L
  ALT: 34.8 IU/L
  AST: 61.4 IU/L
  BUN: 18.2 mg/dL
  CRE: 0.2 mg/dL
  Ca: 10.3 mg/dL
  Cl: 105.8 meq/L
  DBIL: 0 mg/dL
  GLC: 175.2 mg/dL
  IP: 6.6 mg/dL
  K: 4 meq/L
  LDH: 131.6 IU/L
  Na: 144.2 meq/L
  PL: 141.8 mg/dL
  RALB: 3.1 g/dL
  TBIL: 0.02 mg/dL
  TC: 72.6 mg/dL
  TG: 138.4 mg/dL
  TP: 6.2 g/dL
  gamma-GTP: 1 IU/L
